pIC50: −log10 of the molar value. Where two headings read alike, the source gives them in different places.
Experiments:
Myc [1] = experiment: Myc inhibition assay: Myc expression per cell by anti-Myc immunofluorescence, high-content imaging; assay type: cell-based, human (patient-derived medulloblastoma xenograft cells); conditions: for pIC50: medulloblastoma PDX cells, 4 h
Outline: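 IC50 comes from high-content imaging of per-cell Myc immunostaining (DAPI-labelled nuclei) after 4 h compound exposure. Cells were freshly dissociated medulloblastoma PDX tumours, never passaged in vitro, grown in NSG mouse cerebellum, plated serum-free and recovered overnight before treatment.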

[2] = system: retinoblastoma (Rb) protein; experiment: Rb protein expression in PDX511 medulloblastoma cells (immunofluorescence); assay type: cell-based, human (patient-derived)
[3] = system: PDX511 medulloblastoma cells; experiment: Cell viability of PDX511 medulloblastoma cells at 4 hours; assay type: cell-based, human (patient-derived)
Myc [4] = experiment: Western blot of Myc in cultured medulloblastoma PDX cells; assay type: cell-based, human (patient-derived); conditions: 0.18 μM, Western blot (FIG. 4A)
Procedure: (§1) Medulloblastoma PDX cells were harvested from the brains of tumor-bearing mice, cultured overnight, and then treated with Compound 171 for various amounts of time. Cells cultured for time points of 1 hour, 2 hours, and 4 hours were lysed and subjected to Western blotting with antibodies specific for Myc or GAPDH as control, as shown in FIG. 4A. Cells cultured for longer time points of 48 hours and 96 hours were assayed for viability using the CellTiter Glo assay, as shown in FIG. 4B and FIG. 4C.

[5] = system: medulloblastoma PDX cells; experiment: CellTiter Glo viability of medulloblastoma PDX cells; assay type: cell-based, human (patient-derived); conditions: 0.18 μM
Procedure: as §1

Myc [6] = experiment: Western blot of Myc in THP-1 cells (acute monocytic leukemia); assay type: cell-based; conditions: 0.18 μM and 1.0 μM, 4 hours, Western blot (FIG. 5A)
Procedure: (§2) Cell lines derived from acute monocytic leukemia, acute promyelocytic leukemia, pancreatic adenocarcinoma and small cell lung cancer were treated with vehicle (DMSO) or the indicated concentrations of Compound 171 for 4 hours, and then lysed and subjected to Western blotting using antibodies specific for Myc or GAPDH as control.

Myc [7] = experiment: Western blot of Myc in HL-60 cells (acute promyelocytic leukemia); assay type: cell-based; conditions: 0.18 μM and 1.0 μM, 4 hours, Western blot (FIG. 5B)
Procedure: as §2

Myc [8] = experiment: Western blot of Myc in BxPC-3 cells (pancreatic adenocarcinoma); assay type: cell-based; conditions: 0.18 μM and 1.0 μM, 4 hours, Western blot (FIG. 5C)
Procedure: as §2

Myc [9] = experiment: Western blot of Myc in H-82 cells (small cell lung cancer); assay type: cell-based; conditions: 0.18 μM and 1.0 μM, 4 hours, Western blot (FIG. 5D)
Procedure: as §2

[10] = Plasma and brain concentrations in NSG mice after oral administration (LCMS); assay type: in vivo, mice (non-tumor-bearing NSG); conditions: 100 mg/kg oral
Procedure: Non-tumor-bearing NOD-SCID-IL2Rgamma knockout (NSG) mice were treated with Compound 171 at 100 mg/kg via oral administration. Blood was collected retro-orbitally or by cardiac puncture for measuring compound concentrations. For measurements of compound concentration in the brain, animals were sacrificed, and brain tissue was harvested and homogenized. Compound concentration was determined by liquid chromatography-mass spectrometry (LCMS).

Myc [11] = experiment: Myc levels in intracranial medulloblastoma PDX tumors in mice after oral administration (Western blot); assay type: in vivo, NSG mice transplanted with medulloblastoma PDX cells
Procedure: NSG mice transplanted with medulloblastoma PDX cells were treated by oral administration with either vehicle (10% DMSO, 10% Tween 80) or Compound 171 (100 mg/kg). After 5.5 hours, animals were sacrificed, and tumors were harvested, dissociated, lysed and subjected to Western blotting with antibodies specific for Myc or GAPDH as control.

Structure (SMILES): FC(F)(F)c1cccc(Nc2nccc(-c3ccc4nc[nH]c4c3)n2)c1 [Compound 171, 4-(1H-Benzo[d]imidazol-6-yl)-N-(3-(trifluoromethyl)phenyl)pyrimidin-2-amine 2HCl]
- Myc expression inhibition (in words) (Myc [1]; PDX511 medulloblastoma cells (FIG. 3A)): Myc expression inhibition
- pIC50 (Myc [1]; Table 1, read-out: IC50 (Myc inhibition)): > 6.70
- pIC50 (Myc [1]; Table 2, read-out: MYC Inhibition IC50): > 6.70
- effect on expression of the retinoblastoma (Rb) protein [2]: no effect
- effect on cell viability [3]: no effect
- inhibition of Myc expression at 2 and 4 hours (Myc [4]; 2 and 4 hours vs 1 hour): greater inhibition
- time of first inhibition of Myc expression (Myc [4]): ≤ 1 h
- reduction in cell viability by 48 hours ([5]; 48 hours, CellTiter Glo (FIG. 4B)): 80%
- reduction in cell viability by 96 hours ([5]; 96 hours, CellTiter Glo (FIG. 4C)): 100%
- inhibition of Myc, THP-1 (Myc [6]): substantial inhibition of Myc
- inhibition of Myc, HL-60 (Myc [7]): substantial inhibition of Myc
- inhibition of Myc, BxPC-3 (Myc [8]): substantial inhibition of Myc
- inhibition of Myc, H-82 (Myc [9]): substantial inhibition of Myc
- blood-brain-barrier crossing and retention in the brain [10]: ability to cross the blood-brain-barrier with good retention in the brain
- time for which brain concentration remained above the IC90 level ([10]; brain): more than 6 hours
- time for which plasma concentration remained above the IC90 level ([10]; plasma): more than 6 hours
- reduction of Myc levels in intracranial tumors (Myc [11]; 100 mg/kg oral (FIG. 7)): reduction of Myc levels
- mice with undetectable Myc expression in intracranial tumors (Myc [11]; 100 mg/kg oral, after more than 5 hours (5.5 hours), Western blot): 3 out of 6

— patent publication US20260356817A1, “AMINOPYRIMIDINE AND AMINOTRIAZINE DERIVATIVES AS MYC PROTEIN MODULATORS” (Sanford Burnham Prebys Medical Discovery Institute, priority 2022, published 2026)
